Tests used:
[1] = Compound was tested for inhibitory activity against sialidase from Salmonella Typhimurium; parameters: species or system Salmonella enterica subsp. enterica serovar Typhimurium
[2] = Compound was tested for inhibitory activity against sialidase from Vibrio cholerae
[3] = Compound was tested for inhibitory activity against sialidase from Clostridium perfringens; n.a. = not active

| SMILES | IC50 [1] [µM] | IC50 [2] [µM] | IC50 [3] |
| --- | --- | --- | --- |
| CC(=O)N[C@H]1[C@H](O)CC(P(=O)(O)O)=C[C@@H]1O.N.N | 1000 | 1800 | Not Active |
| CC(=O)N[C@@H]1[C@H](O)C=C(P(=O)(O)O)C[C@H]1OCCO.N.N | 1800 | 1600 | Not Active |
| CC(=O)N[C@@H]1[C@@H](O)C=C(P(=O)(O)O)C[C@H]1OCC(O)CO.N.N (stereo partly specified) | > 4000 |  | Not Active |
| C=CCO[C@@H]1CC(P(=O)(O)O)=C[C@H](O)[C@H]1NC(C)=O.CCN(CC)CC.CCN(CC)CC | < 2000 | 1500 | Not Active |

Source: ChEMBL document CHEMBL1146827, “Synthesis and evaluation as sialidase inhibitors of xylo-configured cyclohexenephosphonates carrying glycerol side-chain mimics” (Bioorg Med Chem Lett, 2004)
